Source: patent US8258260B2, “Tumor-associated peptides binding promiscuously to human leukocyte antigen (HLA) class II molecules” (Immatics Biotechnologies GmbH, priority 2005, dated 2012)

Tested on: CD4-positive T-cells
Assay: In vitro T-cell priming with peptide-pulsed autologous DCs, intracellular IFNγ staining of CD4-positive T-cells
Assay type: cell-based, human
Conditions: for CD4+ T-cell IFNγ response to peptide: donors 1, 2 and 3, positive = more than two-fold over negative controls
Procedure: Maturation of DCs: DCs were prepared using blood from healthy donors. Briefly, PBMCs were isolated using standard gradient centrifugation (Lymphocyte Separation Medium, PAA Laboratories GmbH, Pasching, Austria) and plated at a density of 7×10^6 cells/ml in X-Vivo 15 medium. After 2 hours at 37° C., non-adherent cells were removed and adherent monocytes cultured for 6 days in X-Vivo medium with 100 ng/ml GM-CSF and 40 ng/ml IL-4 (AL-ImmunoTools, Friesoythe, Germany). On day 7, immature DCs were activated with 10 ng/ml TNF-α (R&D Systems, Wiesbaden, Germany) and 20 μg/ml poly(IC) (Sigma Aldrich, Steinheim, Germany) for 3 days.
Generation of antigen-specific CD4-positive T-cells: 10^6 PBMCs per well were stimulated with 2×10^5 peptide pulsed (5 μg/ml) autologous DCs. Cells were incubated in 96-well plates (7 wells per donor and per peptide) with T-cell medium: supplemented RPMI 1640 in the presence of 10 ng/ml IL-12 (Promocell, Heidelberg, Germany). After 3 to 4 days of co-incubation at 37° C., fresh medium with 80 U/ml IL-2 (Proleukin, Chiron Corporation, Emeryville, Calif., USA) and 5 ng/ml IL-7 (Promocell) was added. Restimulations were done with autologous PBMCs plus peptide every 6 to 8 days.
Intracellular IFNγ staining: After 3 and 4 rounds of stimulation, PBMCs were thawed, washed twice in X-Vivo 15 medium, resuspended at 10^7 cells/ml in T-cell medium and cultured overnight. On the next day, PBMCs, pulsed with 5 μg/ml peptide, were incubated with effector cells in a ratio of 1:1 for 6 h. Golgi-Stop (Becton Dickinson, Heidelberg, Germany) was added for the final 4 h of incubation.
Cells were analyzed using a Cytofix/Cytoperm Plus kit (Becton Dickinson) and CD4-FITC-(Immunotools), IFNγ-PE- and CD8-PerCP clone SK1-antibodies (Becton Dickinson). For negative controls, cells of seven wells were pooled and incubated either with irrelevant peptide or without peptide, respectively. Stimulation with PMA/Ionomycin was used for positive control. Cells were analyzed on a three-color FACSCalibur (Becton Dickinson).
To generate antigen-specific CD4-positive T-cells and to test the peptides for promiscuous binding, PBMCs of 4 healthy donors with different HLA-DR alleles (FIG. 2), one of them carrying DRB1*1101, were stimulated using peptide-pulsed autologous DCs. […] As a read-out system for the generation of antigen-specific CD4-positive T-cells, IFNγ levels were assessed by flow cytometry. T-cells were analyzed after the third and fourth weekly stimulation by intracellular IFNγ staining plus CD4-FITC and CD8-PerCP staining to determine the percentage of IFNγ-producing cells in specific T-cell subpopulations. […]

Row | Sequence | maximal frequency of IFNγ producing CD4+ T-cells (donor 2) | maximal frequency of IFNγ producing CD4+ T-cells (donor 3) | CD4+ T-cell IFNγ response to peptide
1 | HSKIIIIKKGHAK (listed as Homo sapiens) [SEQ ID NO: 48] | 0.05% | 0.07% | 
2 | NPPSMVAAGSVVAAV (listed as Homo sapiens) [SEQ ID NO: 49] |  |  | showed IFNγ responses
3 | SQDDIKGIQKLYGKRS [SEQ ID NO: 1] |  |  | showed CD4^+ T-cells reactive
